Laboratory results published in patent publication US20240270809A1, “ORAL GLP RECEPTOR AGONISTS” (priority 2020, published 2024).
Positions of bridges follow the written chain, without caps; N, C: chain ends. Non-standard residues stand in square brackets, D forms with d. Residues, ends and D or L forms follow the SMILES beside them. *: point of attachment. Malonyl(2,2-Me2,histaminyl) = CC(C)(C(=O)NCCc1cnc[nH]1)C(=O)*; Ala(1H-tetrazol-5-yl) = N[C@@H](Cc1nnn[nH]1)C(=O)O; αMePhe(2-F) = C[C@](N)(Cc1ccccc1F)C(=O)O; Nle = CCCC[C@H](N)C(=O)O; Aib = CC(C)(N)C(=O)O

How the values were obtained:
Assay type in all cases: cell-based
[1] = target: T1, human GLP2 receptor (Homo sapiens, UniProt O95838); experiment: cAMP accumulation assay, functional agonism of human GLP2 receptor; details: HEK cells infected with human GLP2 receptor BacMam virus, HTRF cAMP; for Emax: HEK293, read-out: Human GLP-2R agonist cAMP Emax; for EC50: read-out: Human GLP-2R agonist cAMP pEC50 (converted)
T1 construct: expressed in transfected cells; host or cells: HEK cells, BacMam virus transduction
T1 sequence (O95838 1-553): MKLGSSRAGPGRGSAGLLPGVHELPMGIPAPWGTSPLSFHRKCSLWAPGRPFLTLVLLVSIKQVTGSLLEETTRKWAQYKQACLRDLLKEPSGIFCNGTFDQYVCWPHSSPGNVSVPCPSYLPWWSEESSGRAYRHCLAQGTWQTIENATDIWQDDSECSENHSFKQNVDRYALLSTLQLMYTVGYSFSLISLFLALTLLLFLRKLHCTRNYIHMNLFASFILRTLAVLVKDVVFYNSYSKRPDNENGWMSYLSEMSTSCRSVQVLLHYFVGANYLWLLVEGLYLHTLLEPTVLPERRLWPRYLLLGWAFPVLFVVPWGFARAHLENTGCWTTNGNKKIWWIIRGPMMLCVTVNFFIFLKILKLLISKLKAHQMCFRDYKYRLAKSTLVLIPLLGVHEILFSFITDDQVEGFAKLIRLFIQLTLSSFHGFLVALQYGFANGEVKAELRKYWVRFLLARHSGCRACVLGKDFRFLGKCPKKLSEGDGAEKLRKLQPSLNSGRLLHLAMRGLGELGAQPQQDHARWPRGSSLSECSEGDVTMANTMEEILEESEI
Summary of the method: (§1)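 HEK cells transduced 24 h with human GLP1 or GLP2 receptor BacMam virus, then frozen until use. Agonist stimulation for 45 min at 37 °C in HBSS with 0.5 mM IBMX; cAMP measured by HTRF after lysis.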

[2] = target: T2, human GLP1 receptor (Homo sapiens, UniProt P43220); experiment: cAMP accumulation assay, functional agonism of human GLP1 receptor; details: HEK cells infected with human GLP1 receptor BacMam virus, HTRF cAMP; for Emax: HEK293, read-out: Human GLP-1R agonist cAMP Emax; for EC50: read-out: Human GLP-1R agonist cAMP pEC50 (converted)
T2 construct: expressed in transfected cells; host or cells: HEK cells, BacMam virus transduction
Summary of the method: as §1

[3] = target: T3, mouse GLP2 receptor (Mus musculus, UniProt Q5IXF8); experiment: cAMP accumulation assay, functional agonism of mouse GLP2 receptor; details: HEK cells transiently transfected with mouse GLP2 receptor, HTRF cAMP
T3 construct: expressed in transfected cells; host or cells: HEK cells, transient transfection with GeneJuice
T3 sequence (Q5IXF8 1-512): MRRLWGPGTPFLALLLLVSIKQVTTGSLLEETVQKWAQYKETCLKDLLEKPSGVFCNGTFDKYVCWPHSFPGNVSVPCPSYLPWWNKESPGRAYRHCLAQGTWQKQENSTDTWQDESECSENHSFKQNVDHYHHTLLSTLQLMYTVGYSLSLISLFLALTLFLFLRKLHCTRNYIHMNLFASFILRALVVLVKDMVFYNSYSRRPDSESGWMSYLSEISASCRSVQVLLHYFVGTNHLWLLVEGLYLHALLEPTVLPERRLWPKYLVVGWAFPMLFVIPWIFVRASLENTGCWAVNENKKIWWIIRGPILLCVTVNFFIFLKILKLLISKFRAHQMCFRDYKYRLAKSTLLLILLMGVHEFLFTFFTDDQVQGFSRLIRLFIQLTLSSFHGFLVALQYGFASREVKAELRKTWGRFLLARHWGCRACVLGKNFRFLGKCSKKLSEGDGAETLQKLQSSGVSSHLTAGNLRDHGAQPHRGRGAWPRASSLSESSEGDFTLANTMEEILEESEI
Description: CAMP production upon agonist stimulation of mouse GLP2 or GLP1 receptors was assessed utilizing HiRange cAMP kit (Cisbio). In brief, HEK cells were transiently transfected for 24 hours with cDNA using GeneJuice Transfection reagent (EMD Millipore) and frozen at −80° C. for later use in the assay. On the day, various concentrations of compounds were dispensed using ECHO-555 (LabCyte) to a total volume of 100 nl into a low volume 384-well Proxi plate (Perkin Elmer) followed by addition of 10 μl of cell suspension delivering 8000 cells per well. Cells were prepared in the assay buffer (HBSS (Lonza) supplemented with 0.5 mM IBMX (Tocris)). After 45 min incubation at 37° C., the reaction was stopped by addition of the HTRF detection reagents in the lysis buffer provided in the kit. Following 1-hour incubation at RT, plates were read on Pherastar FS (BMG Labtech, Inc.) using standard HTRF settings. Dotmatics Studies software was used for calculation of pEC50 values by fitting data to a four-parameter concentration response curve.

T2 sequence (P43220 24-463): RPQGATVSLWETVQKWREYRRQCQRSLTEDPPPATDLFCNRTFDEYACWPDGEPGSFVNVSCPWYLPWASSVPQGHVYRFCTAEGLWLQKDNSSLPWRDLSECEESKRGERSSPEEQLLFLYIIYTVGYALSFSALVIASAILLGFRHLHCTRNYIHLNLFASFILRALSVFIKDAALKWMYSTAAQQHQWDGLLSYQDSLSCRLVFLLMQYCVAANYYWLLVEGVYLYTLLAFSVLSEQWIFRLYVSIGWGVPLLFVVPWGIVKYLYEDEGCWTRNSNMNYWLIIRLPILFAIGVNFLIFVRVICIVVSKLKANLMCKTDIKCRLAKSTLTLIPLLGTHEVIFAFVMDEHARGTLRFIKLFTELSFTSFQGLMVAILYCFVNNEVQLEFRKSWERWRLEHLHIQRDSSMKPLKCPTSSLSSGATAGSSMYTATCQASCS

Emax [1]	EC50 [1]	Emax [2]	EC50 [2]	Emax ([3]; HEK293, read-out: Mouse GLP-2R agonist cAMP Emax)	EC50 ([3]; read-out: Mouse GLP-2R agonist cAMP pEC50 (converted))	SMILES
103%	0.0158 nM	97.1%	0.158 nM	86.4%	3.16 nM	CCCC[C@@H]1NC(=O)[C@H](CCC(=O)O)NC(=O)[C@@H](NC(=O)[C@H](CO)NC(=O)[C@](C)(Cc2ccccc2F)NC(=O)[C@H](CO)NC(=O)[C@@H](C)NC(=O)[C@H](CC(=O)O)NC(=O)C(C)(C)C(=O)NCCc2c[nH]cn2)CCCCNC(=O)C[C@@H](C(=O)N[C@H](C(=O)N[C@@H](CC(C)C)C(=O)N[C@@H](CC(=O)O)C(=O)N[C@H]2CCC(=O)NCCCC[C@@H](C(=O)N[C@@H](CC(=O)O)C(=O)N[C@@H](Cc3ccccc3)C(=O)N[C@H](C(=O)N[C@@H](CC(N)=O)C(=O)N[C@@H](Cc3c[nH]c4ccccc34)C(=O)N[C@@H](CC(C)C)C(=O)N[C@H](C(=O)N[C@@H](CCC(N)=O)C(=O)N[C@H]3CCC(=O)NCCCC[C@@H](C(N)=O)NC(=O)[C@H]([C@@H](C)O)NC(=O)[C@H]([C@@H](C)CC)NC(=O)[C@H](CCCCN)NC3=O)[C@@H](C)CC)[C@@H](C)CC)NC(=O)[C@H](C)NC(=O)[C@H](C)NC(=O)[C@H](CCCCN)NC2=O)[C@@H](C)CC)NC(=O)[C@@H](Cc2ccccc2)NC1=O [Example 26] ({Malonyl(2,2-Me2,histaminyl)}-D[dA]S[αMePhe(2-F)]SKE[Nle][dF]DILDEKAAKDFINWLIQEKITK-NH2; lactam 6-10, 14-18, 27-31 (inferred); C-terminus assumed)
102%	0.501 nM	88.3%	3.98 nM			CCCC[C@H](NC(=O)[C@H](CCC(=O)O)NC(=O)[C@@H]1CCCCNC(=O)CC[C@H](NC(=O)[C@H](CC(=O)O)NC(=O)C(C)(C)NC(=O)[C@@H](N)Cc2c[nH]cn2)C(=O)N[C@@H](CO)C(=O)N[C@@H](Cc2ccccc2)C(=O)N[C@@H](CO)C(=O)N1)C(=O)N[C@H](Cc1ccccc1)C(=O)N[C@H](C(=O)N[C@H](C(=O)N[C@@H](CC(C)C)C(=O)N[C@@H](CC(=O)O)C(=O)N[C@@H](CC(C)C)C(=O)N[C@@H](CCCCN)C(=O)N[C@@H](C)C(=O)N[C@@H](C)C(=O)N[C@@H](CCCCN)C(=O)N[C@@H](CC(=O)O)C(=O)N[C@@H](Cc1ccccc1)C(=O)N[C@H](C(=O)N[C@@H](CC(N)=O)C(=O)N[C@@H](Cc1c[nH]c2ccccc12)C(=O)N[C@@H](CC(C)C)C(=O)N[C@H](C(=O)N[C@@H](CCC(N)=O)C(=O)N[C@H](C(=O)N[C@H]1CCC(=O)NCCCC[C@@H](C(N)=O)NC(=O)[C@H]([C@@H](C)O)NC(=O)[C@H]([C@@H](C)CC)NC1=O)[C@@H](C)O)[C@@H](C)CC)[C@@H](C)CC)[C@@H](C)CC)[C@@H](C)O [Example 104] (H-H[Aib]DESFSKE[Nle][dF]TILDLKAAKDFINWLIQTEITK-NH2; lactam 4-8, 30-33 (inferred); C-terminus assumed)
104%	0.501 nM	92.1%	3.98 nM			CCCC[C@@H]1NC(=O)[C@H](CCC(=O)O)NC(=O)[C@@H](NC(=O)[C@H](CO)NC(=O)[C@H](Cc2ccccc2)NC(=O)[C@H](CO)NC(=O)CNC(=O)[C@H](Cc2nn[nH]n2)NC(=O)C(C)(C)C(=O)NCCc2c[nH]cn2)CCCCNC(=O)C[C@@H](C(=O)N[C@H](C(=O)N[C@@H](CC(C)C)C(=O)N[C@@H](CC(=O)O)C(=O)N[C@@H](CC(C)C)C(=O)N[C@@H](CCCCN)C(=O)N[C@@H](C)C(=O)N[C@@H](C)C(=O)NC(C)(C)C(=O)N[C@@H](CC(=O)O)C(=O)N[C@@H](Cc2ccccc2)C(=O)N[C@H](C(=O)N[C@@H](CC(N)=O)C(=O)N[C@@H](Cc2c[nH]c3ccccc23)C(=O)N[C@@H](CC(C)C)C(=O)N[C@H](C(=O)N[C@@H](CCC(N)=O)C(=O)N[C@H](C(=O)N[C@H]2CCC(=O)NCCCC[C@@H](C(N)=O)NC(=O)[C@H]([C@@H](C)O)NC(=O)[C@H]([C@@H](C)CC)NC2=O)[C@@H](C)O)[C@@H](C)CC)[C@@H](C)CC)[C@@H](C)CC)NC(=O)[C@@H](Cc2ccccc2)NC1=O [Example 108] ({Malonyl(2,2-Me2,histaminyl)}-[Ala(1H-tetrazol-5-yl)]GSFSKE[Nle][dF]DILDLKAA[Aib]DFINWLIQTEITK-NH2; lactam 6-10, 28-31; C-terminus assumed)
102%	0.02 nM	89.1%	3.16 nM			CCCC[C@@H]1NC(=O)[C@H](CCC(=O)O)NC(=O)[C@@H](NC(=O)[C@H](CO)NC(=O)[C@H](Cc2ccccc2)NC(=O)[C@H](CO)NC(=O)CNC(=O)[C@H](Cc2nn[nH]n2)NC(=O)C(C)(C)C(=O)NCCc2c[nH]cn2)CCCCNC(=O)C[C@@H](C(=O)N[C@H](C(=O)N[C@@H](CC(C)C)C(=O)N[C@@H](CC(=O)O)C(=O)N[C@H]2CC(=O)NCCCC[C@@H](C(=O)N[C@@H](CC(=O)O)C(=O)N[C@@H](Cc3ccccc3)C(=O)N[C@H](C(=O)N[C@@H](CC(N)=O)C(=O)N[C@@H](Cc3c[nH]c4ccccc34)C(=O)N[C@@H](CC(C)C)C(=O)N[C@H](C(=O)N[C@@H](CCC(N)=O)C(=O)N[C@H](C(=O)N[C@@H](CCCCN)C(=O)N[C@H](C(=O)N[C@H](C(=O)N[C@@H](Cc3ccccc3)C(N)=O)[C@@H](C)O)[C@@H](C)CC)[C@@H](C)O)[C@@H](C)CC)[C@@H](C)CC)NC(=O)[C@H](C)NC(=O)[C@H](C)NC(=O)[C@H](CCCCN)NC2=O)[C@@H](C)CC)NC(=O)[C@@H](Cc2ccccc2)NC1=O [Example 114] ({Malonyl(2,2-Me2,histaminyl)}-[Ala(1H-tetrazol-5-yl)]GSFSKE[Nle][dF]DILDDKAAKDFINWLIQTKITF-NH2; lactam 6-10, 14-18 (inferred); C-terminus assumed)
104%	0.02 nM	92%	0.501 nM			CCCC[C@@H]1NC(=O)[C@H](CCC(=O)O)NC(=O)[C@@H](NC(=O)[C@H](CO)NC(=O)[C@H](Cc2ccccc2)NC(=O)[C@H](CO)NC(=O)CNC(=O)[C@H](Cc2nn[nH]n2)NC(=O)C(C)(C)C(=O)NCCc2c[nH]cn2)CCCCNC(=O)C[C@@H](C(=O)N[C@H](C(=O)N[C@@H](CC(C)C)C(=O)N[C@@H](CC(=O)O)C(=O)N[C@H]2CCC(=O)NCCCC[C@@H](C(=O)N[C@@H](CC(=O)O)C(=O)N[C@@H](Cc3ccccc3)C(=O)N[C@H](C(=O)N[C@@H](CC(N)=O)C(=O)N[C@@H](Cc3c[nH]c4ccccc34)C(=O)N[C@@H](CC(C)C)C(=O)N[C@H](C(=O)N[C@@H](CCC(N)=O)C(=O)N[C@H](C(=O)N[C@@H](CCCCN)C(=O)N[C@H](C(=O)N[C@H](C(=O)N[C@@H](Cc3ccccc3)C(N)=O)[C@@H](C)O)[C@@H](C)CC)[C@@H](C)O)[C@@H](C)CC)[C@@H](C)CC)NC(=O)[C@H](C)NC(=O)[C@H](C)NC(=O)[C@H](CCCCN)NC2=O)[C@@H](C)CC)NC(=O)[C@@H](Cc2ccccc2)NC1=O [Example 115] ({Malonyl(2,2-Me2,histaminyl)}-[Ala(1H-tetrazol-5-yl)]GSFSKE[Nle][dF]DILDEKAAKDFINWLIQTKITF-NH2; lactam 6-10, 14-18 (inferred); C-terminus assumed)
